Test results: patent publication US9029414B2, “Triterpenoid compounds and methods of use thereof” (Biotechnology Research Corporation, priority 2008, dated 2015)

Experiments:
[1] = tested on: phosphorylated STAT3, STAT4, STAT6 in splenocytes of EAE mice; test: Western blot of phosphorylated STAT proteins in EAE splenocytes; type: cell-based; conditions: exogenous 30 μM, MOG 25 μg/mL, splenocytes of vehicle-treated EAE mice
Method: (§1) On day 21, EAE mice were sacrificed by cervical dislocation and spleens were removed aseptically. The removed spleens were then cut with sterilized scissors and strained through […] mesh (BD Bioscience) with a plunger of 5 mL syringe (BD Bioscience) in 9 mL of RPMI 1640 (Invitrogen) with 100 U/mL penicillin and 100 μg/mL streptomycin (Sigma). The cell mixture was then added to 9 mL of Lympholyte (Cedarlane Laboratories) for gradient separation of splenocytes from red bloods cells by centrifugation at 1500 g for 20 min. After the centrifugation, the lympholyte layer containing splenocytes were carefully removed and washed with 10 mL of RPMI 1640 at 800 g for 10 min for three times. The isolated splenocytes were seeded onto different plate format and cultured with RPMI 1640 medium (Invitrogen) supplement with 10% heat inactivated fetal bovine serum (Invitrogen) and 100 U/mL penicillin and 100 μg/mL streptomycin at 37° C. CO2 incubator.
Splenocytes of EAE mice were cultured at the density of 1×10^7 cells in 6-well plates (Falcon) and treated with the absence or presence of the MOG peptide (25 μg/mL) (Hooke Laboratories), DA001, and DA021 (30 μM) for 24 h. After overnight incubation, the splenocytes were lysed with RIPA containing antipain dihydrochloride, trypsin inhibitor, leupeptin, aprotinin, sodium orthovanadate, benzamidine and phenyl methane sulphonyl fluoride. After centrifugation at 14000 rpm for 15 min, 4° C., protein concentrations were determined by Dc Protein Assay kit (Bio-Rad). 20 μg of each sample was subjected to 10% SDS-PAGE with 20 mA for 3 h. Immunoblot analysis was performed by transfer of proteins onto nitrocellulose membranes using a mini trans-blot apparatus (Bio-Rad). After 2 h blocking with milk, the membranes were incubated overnight at 4° C. with specific primary Abs (1:1000): anti-phospho-Stat 3 (Cell signaling), anti-phospho-Stat 4 (BD Bioscience), and anti-phospho-Stat 6 (Cell signaling). Anti-α-tubulin (Sigma) was used as a loading control. After washing, subsequent incubation with anti-rabbit or anti-mouse HRP-conjugated secondary antibody (1:3000) (Cell Signaling) for 1 h at room temperature was carried out. The signal was detected by ECL Western blot detection kit (GE Healthcare).
The efficacy of DA compounds in modulating the expression of pro-inflammation proteins was examined. Western blot analysis was performed on cultured splenocytes isolated from the spleen of EAE mice and the expression of signal transducers and activators of transcription (STAT) proteins was examined in response to exogenous treatments of MOG (25 μg/mL), DA001 (30 μM) and DA021 (30 μM). Exogenous addition of MOG [MOG (Ex)] to EAE splenocytes is shown to robustly increase the phosphorylation of STAT3, STAT4, and STAT6.
Western blot analysis was performed as described in the methodology.

[2] = tested on: MOG-induced IFN-γ in primary splenocytes; test: IFN-γ Quantikine ELISA in primary splenocytes of EAE mice; type: cell-based; conditions: for Reduction in IFN-γ, % Reduction: splenocytes of EAE mice dosed 100 mg/kg orally daily vs MOG + Vehicle; for IFN-γ, Average / level of IFN-γ: splenocytes of EAE mice dosed 100 mg/kg orally daily, exogenous MOG; for decrease of IFN-γ in response to exogenous compound: splenocytes of compound-treated EAE mice (100 mg/kg); for decrease of IFN-γ in response to exogenous compound / reduction in the amount of MOG-induced IFN-γ: exogenous compound 30 μM, MOG 25 μg/mL; for reduction in the amount of MOG-induced IFN-γ: splenocytes of vehicle-treated EAE mice, 48 hrs
Method: as §1
Splenocytes from EAE mice were cultured at the density of 1×10^6 cells in 12-well plates (Falcon) in the absence or presence of the MOG peptide (25 μg/mL) (Hooke Laboratories), DA001 and DA021 (30 μM) with RPMI 1640 medium (Invitrogen) supplement with 10% heat inactivated fetal bovine serum (Invitrogen) and 100 U/mL penicillin and 100 μg/mL streptomycin (Sigma) for 48 h. After 48 h, the supernatants were collected by pelleting the cells at 300 g for 10 min at 4° C. 50 μL of the each sample was added to the microtiter plate provided by the manufacturer of the Quantikine ELISA assay kit (R and D systems). Additional 50 μL of assay diluents buffer was added and incubated at room temperature for 2 h. After the incubation, the supernatants were discarded and the cells were washed with wash buffer. 100 μL of conjugate was added to the cells and the plate was again incubated at room temperature for 2 h. After another washing, 100 μL of substrate solution was added followed by 30 min incubation at room temperature. Subsequently, 100 μL of stop solution was added to each well and the plate was read in 450 nm wavelength on a microplate reader (Dynex Revelation 2.2).
Cytokines are believed to be one of the key signaling molecules in disease progression of EAE. Autoimmune response observed in the EAE model is believed to be mediated via the Th1 pathway, and interferon-gamma (IFN-γ) is the hallmark cytokine of the Th1 immune response. Therefore, it is critical to examine the efficacy of the compounds in modulating the levels of cytokines in EAE mice. To this end, splenocytes isolated from the spleens of EAE mice were cultured and treated with exogenous MOG peptide and the amount of IFN-γ was measured in response to exogenous DA001 and DA021 (30 μM) treatments using ELISA.
(§2) The cells were cultured in RPMI 1640 medium supplement with 10% heat inactivated fetal bovine serum and penicillin/streptomycin, in the absence or presence of MOG (25 μg/mL, Ex) with or without DA001 or DA021 (30 μM, Ex). Supernatants were collected after 48 hrs and IFN-γ Quantikine ELISA assay kit (R and D systems) was used according to the manufacturer's protocol. The amount of IFN-γ was calculated based on the standard curve established during the assay. The graph presented is the composite of two separate trials with duplicate samples in each trial. ***=p≦0.0001, **=p≦0.001, *=p≦0.01.
as §2, with “Cells” for “The cells”, “μg/mL)” for “μg/mL, Ex)”, “DA001” for “DA001 or DA021”, “μM).” for “μM, Ex).”, “***=p≦0.0001. […]” for “***=p≦0.0001, **=p≦0.001, *=p≦0.01.”

SMILES	MOG-induced STAT3 phosphorylation [1]	MOG-induced STAT4 phosphorylation [1]	STAT6 phosphorylation [1]	Reduction in IFN-γ, % Reduction [2] [%]	IFN-γ, Average [2]	level of IFN-γ [2] [pg/mL]	decrease of IFN-γ in response to exogenous compound [2] [%]	reduction in the amount of MOG-induced IFN-γ [2] [%]
C=C(C)[C@@H]1CC[C@]2(/C=N/O)CC[C@]3(C)C(CCC4[C@@]5(C)CCC(=O)[C@@](C)(CO)[C@@H]5CC[C@]43C)C12 (stereo partly drawn) [DA021]	significantly decreased	significantly decreased	marked decrease	78.3	135.3 ± 12.3 ρg/mL	135	78	62
C=C(C)[C@@H]1CC[C@]2(C(=O)O)CC[C@]3(C)C(CC[C@@H]4[C@@]5(C)CC[C@H](O[C@@H]6OC[C@H](O)[C@H](O)[C@H]6O[C@@H]6O[C@@H](C)[C@H](O)[C@@H](O)[C@H]6O)[C@@](C)(CO)[C@@H]5CC[C@]43C)[C@@H]12 (stereo partly drawn) [DA001, 3-O-[α-L-rhamnopyranosyl-(1→2)-α-L-arabinopyranosyl]-3,23-dihydroxy-20(29)-lupen-28-oic acid]	significantly decreased	significantly decreased	–	83.1	105.7 ± 5.1 ρg/mL	105	91	71
